Source: US7595300B2, “7-quinolyl ketolide antibacterial agents” (priority 2005, dated 2009)
≈ marks a conversion by molar mass, not a printed value. Like-named read-outs stand apart in the source and are kept apart here.

Assays:
[1] = test system: human hepG2 hepatocytes; assay: In vitro hepatotoxicity, resazurin and Nile Red staining; type: cell-based; details: 100 μM
Experimental: In one experiment, hepatotoxicity was estimated by overnight incubation of compounds at 3, 10, 30, 100, or 300 μM with cultured rat or human hepG2 hepatocytes, followed by staining of the cells with resazurin to measure viability or with Nile Red to measure steatosis. The minimal drug concentration at which changes in dye binding were observed was noted as the minimal effective concentration. The compound of formula (VIII) wherein Z=3-quinolyl affected […] and steatosis in human HepG2 hepatocytes at 30 μM.

[2] = test system: anesthetized guinea pigs; assay: Cardiovascular safety, QTc interval in anesthetized guinea pigs, i.v. bolus; type: in vivo, guinea pig; details: for QTc prolongation (% above vehicle): anesthetized guinea pig, incremental i.v. bolus doses 0.47 to 15 mg/kg
Experimental: (§1) Total doses of drug (0.47, 0.94, 1.88, 3.75, 7.5, and 15 mg/kg) or equivalent volumes of vehicle were administered incrementally as an i.v. bolus to groups of 6 anesthetized rats or guinea pigs at 0, 15, 30, 45, 60, and 75 minutes. Hemodynamic parameters including mean arterial pressure (MAP) and heart rate (HR), and ECG parameters (QT and PR intervals and QRS duration) were recorded. For the rat, injection of vehicle gave a 16% increase in QT interval over baseline. For the guinea pig, injection of vehicle gave a 3% increase in QT interval over baseline.

[3] = test system: Streptococcus pneumoniae ATCC 6303; assay: rat lower respiratory tract infection (lung pneumonia) model; type: in vivo; details: for Log CFU/g (avg, n = 8): rat lungs, 12 hours after the last dose
Experimental: The in vivo efficacy of compounds (II) and (III) were evaluated in a rat lower respiratory tract infection model. Groups of 8 rats were infected intratracheally with 0.5 mL containing 10^6 CFUs of Streptococcus pneumoniae ATCC 6303 in 5% hog gastric mucin. Compounds dissolved in ethanol were administered by oral gavage daily over 3 days starting 18 hours post-inoculation. Lungs were aseptically removed from survivors 12 hours after the last dose and examined for visible signs of infection, then homogenized in sterile PBS and plated for determination of CFUs by log plating on Columbia agar-nalidixic acid plates.

[4] = test system: anesthetized rats; assay: Cardiovascular safety, QT interval in anesthetized rats, i.v. bolus; type: in vivo, rat; details: for QT prolongation (% above vehicle): anesthetized rat, incremental i.v. bolus doses 0.47 to 15 mg/kg
Experimental: as §1

[5] = Pharmacokinetics in the mouse, plasma and lung tissue; type: in vivo; details: oral gavage 10 mg/kg; for Lung AUC / Lung Cmax: mouse lung tissue
Experimental: The pharmacokinetics of compounds of formula (VIII) and compounds of formula (II) and (III) were measured in the mouse. Compounds were administered either intravenously (i.v.) at 1 mg/kg, or per oral gavage (p.o.) at 10 mg/kg. Plasma samples were taken and analyzed by LC/MS-MS. For lung tissue pharmacokinetics, lungs were removed and homogenized, followed by analyzis by LC/MS-MS.

[6] = test system: male beagle dogs; assay: Cardiovascular safety in telemetered dogs, intravenous infusion; type: in vivo, dog
Excerpt: Four male beagle dogs, obtained from Marshall Farms USA, Inc. (North Rose, N.Y.), were surgically instrumented with telemetry transducers (Data Sciences International, type RL11M2-D70-PCT) to assess arterial blood pressure (ABP) and lead II electrocardiogram (ECG) parameters.
The dosing route was an intravenous infusion jugular vein access). The infusion was accomplished using a CADD Prizm® ambulatory infusion pump attached to a jacket worn by the dog. The dose duration for the intravenous infusion was 30 min for all doses administered, except the last dose (30 mg/kg) where the infusion period was extended to 45 min to accommodate the larger dose volume required for this dose. The vehicle dose and diluent for the test article was 0.05-M sodium citrate in sterile water for injection.
There was one treatment group of four non-naïve dogs and the study was comprised of both pharmacokinetic and telemetry phases, as summarized in the dose administration table for compound (III) (Table 16) below. At least one week was given between dosings to allow clearance of the drug.
For the telemetry phase of the study, collection of hemodynamic and lead II ECG data commenced approximately 30 min prior to dosing and ended approximately 6 h post-dose. Systolic blood pressure (SBP), diastolic blood pressure (DBP), HR, and lead II ECG variables (PR interval, QRS duration, RR interval, and QT interval) were acquired continuously from each animal during each dose day recording session. The QT interval was corrected for variations in HR using the Fridericia's QTc interval (QTcF).
Data acquired following treatment with vehicle or compound (III) were extracted at −10, −5, 0, 10, 20, 30, 35, 45, 60, 90, 150, 270, and 390 min relative to the start dose time. For all blood pressure and ECG parameters, data following treatment with compound (III) were compared to the time-matched vehicle dose data. Statistical comparisons were made using a one-way ANOVA for repeated measures, followed by the Dunnett's post-hoc test when statistical significance was detected with the ANOVA. Changes were considered statistically significant when p<0.05.
A complete visual scan of the ECG waveforms from the vehicle, 11 mg/kg dose, and 15 mg/kg dose of compound (III) was conducted. All waveforms were examined for gross changes in waveform morphology and arrhythmogenesis.

[7] = test system: S. pyogenes; assay: MIC, NCCLS broth microdilution, respiratory pathogens; type: cell-based; details: Streptococcus pyogenes
Experimental: (§2) Minimum inhibitory concentrations (“MICs”) were determined by the NCCLS broth microdilution procedure for susceptibility testing for bacteria that grow aerobically (National Committee for Clinical Laboratory Standards, 1997. Methods for dilution antimicrobial susceptibility tests for bacteria that grow aerobically, 4th ed. Approved standard. NCCLS Document M7-A4. National Committee for Clinical Laboratory Standards, Villanova, Pa.). Stock solutions were prepared on the day of the test and appropriate aliquots were added to cation adjusted Mueller-Hinton broth (CAMHB, DIFCO) or Haemophilus test media. Two-fold serial dilutions were prepared and added to wells in microtiter plates. Final test concentrations ranged from 8 to 0.004 ug/ml. Broth cultures of bacteria inoculated from growth on overnight plates for all test bacteria except Streptococcus pneumoniae and Haemophilus influenzae were incubated at 35° C. and then adjusted to the Kirby Bauer standard and diluted in CAMHB to achieve a final inoculum concentration of approximately 5×10^5 CFU/ml. Inocula for S. pneumoniae and H. influenzae were prepared by directly suspending colonies from an overnight plate, adjusting the turbidity and diluting as above. S. pneumoniae media was supplemented with 3% lysed horse blood. All plates were incubated in ambient air at 35° C. for 20-24 h for S. pneumoniae and Haemophilus influenzae and 16-20 h for all other bacteria.

[8] = test system: Haemophilus influenzae; assay: as above; type: cell-based; details: H. influenzae
Experimental: as §2

[9] = test system: M. catarrhalis; assay: as above; type: cell-based; details: Moraxella catarrhalis
Experimental: as §2

[10] = test system: Streptococcus pneumoniae; assay: as above; type: cell-based; details: S. pneumoniae
Experimental: as §2

[11] = test system: dog; assay: Safety of intravenous dosing in dog models; details: intravenous 9 mg/kg
[12] = genotype sensitive, read-out: MIC50
[13] = genotype sensitive, read-out: MIC90

CC1CC(N(C)C)C(O)C(O[C@@H]2[C@@H](C)C(=O)[C@@H](C)C(=O)O[C@H](CCF)[C@@]3(C)OC(=O)N[C@@H]3[C@@H](C)C(=O)[C@H](C)C[C@@]2(C)OC/C=C/c2ccc3cccnc3c2)O1 (stereo partly shown) [Compound (II), 6-O-(1-(7-quinolyl)-3-propenyl)-11-amino-11-deoxy-3-(descladinosyl)-3-oxo-15-fluoroerythromycin A-11,12-cyclic carbamate]
effects on metabolic stability and steatosis [1]: No effects | QTc prolongation (% above vehicle) [2]: 1 % above vehicle | effect on the QTc interval in the anesthetized guinea pig ([2]; guinea pig, cumulative doses up to 30 mg/kg, relative to vehicle controls): no statistically significant effects | Log CFU/g (avg, n = 8) ([3]; 0.5 mg/kg oral gavage daily over 3 days): 4.8 Log CFU/g | Log CFU/g (avg, n = 8) ([3]; 2.5 mg/kg oral gavage daily over 3 days): 4.3 Log CFU/g | % survivors ([3]; rat, 0.5 mg/kg oral gavage daily over 3 days): 78% | % survivors ([3]; rat, 2.5 mg/kg oral gavage daily over 3 days): 88% | reducing the bacterial load in the rat lungs and increasing survival relative to control animals ([3]; rat, oral gavage daily over 3 days): efficacious | QT prolongation (% above vehicle) [4]: −4 % above vehicle | effect on the QT interval in the rat ([4]; rat): did not prolong the QT interval | Lung AUC [5]: 1.42 ug/mL-h | Lung Cmax [5]: 260 ng/mL | AUC ([5]; mouse plasma): 890 ng·h/mL | Cmax ([5]; mouse plasma): 260 ng/mL | heart rate-corrected QT interval (QTc), FIG. 5 ([6]; male beagle dogs, intravenous infusion 15 mg/kg over 30 minutes): No significant increase in QTc | effects on cardiac parameters, including QT interval ([6]; telemetered dogs, intravenous infusion up to 15 mg/kg): no effects | MIC50 ([7]; genotype ermB): 0.12 µg/mL (≈ 0.153 µM) | MIC90 ([7]; genotype ermB): 1 µg/mL (≈ 1.28 µM) | MIC50 ([7]; genotype mef, read-out: MIC50): 0.12 µg/mL (≈ 0.153 µM) | MIC90 ([7]; genotype mef, read-out: MIC90): 0.25 µg/mL (≈ 0.319 µM) | MIC50 [7, 12]: 0.03 µg/mL (≈ 0.0383 µM) | MIC90 [7, 13]: 0.03 µg/mL (≈ 0.0383 µM) | MIC50 ([8]; resistant): > 8 µg/mL | MIC90 ([8]; resistant): > 8 µg/mL | MIC50 ([8]; sensitive): 2 µg/mL (≈ 2.55 µM) | MIC90 ([8]; sensitive): 4 µg/mL (≈ 5.1 µM) | MIC50 [9]: 0.12 µg/mL (≈ 0.153 µM) | MIC90 [9]: 0.12 µg/mL (≈ 0.153 µM) | MIC50 ([10]; 20 h, genotype ermB + mef): 1 µg/mL | MIC50 ([10]; genotype ermB): 0.12 µg/mL (≈ 0.153 µM) | MIC90 ([10]; genotype ermB): 0.12 µg/mL (≈ 0.153 µM) | MIC90 ([10]; genotype ermB + mef): 2 µg/mL | MIC50 ([10]; genotype mef, read-out: MIC50): 0.25 µg/mL (≈ 0.319 µM) | MIC90 ([10]; genotype mef, read-out: MIC90): 0.25 µg/mL (≈ 0.319 µM) | MIC50 [10, 12]: 0.03 µg/mL (≈ 0.0383 µM) | MIC90 [10, 13]: 0.03 µg/mL (≈ 0.0383 µM)

CC1CC(N(C)C)C(O)C(O[C@@H]2[C@@H](C)C(=O)[C@](C)(F)C(=O)O[C@H](CCF)[C@@]3(C)OC(=O)N[C@@H]3[C@@H](C)C(=O)[C@H](C)C[C@@]2(C)OC/C=C/c2ccc3nccnc3c2)O1 (stereo partly shown) [H]
toxicity, severe clinical effects upon intravenous dosing [11]: extremely toxic | QTc prolongation (% above vehicle) [2]: 4 % above vehicle | QT prolongation (% above vehicle) [4]: 15 % above vehicle | Lung AUC [5]: 11.0 ug/mL-h | Lung Cmax [5]: 3000 ng/mL | Plasma AUC ([5]; mouse plasma): 2.1 ug/mL-h | Plasma Cmax ([5]; mouse plasma): 670 ng/mL
